According to patent publication US6294674A, “Dibenzofuran sulfonamide matrix metalloproteinase inhibitors” (priority 1999, dated 2001):
Read-outs that look alike come from different tables or passages of the source.

Assays:
[1] = target: gelatinase A catalytic domain (MMP02); assay: Thiopeptolide assay, gelatinase A catalytic domain (GCD, MMP02); format: biochemical
Protocol: (§1) Hydrolysis of the thiopeptolide substrate Ac-Pro-Leu-Gly-thioester-Leu-Leu-Gly-OEt (Bachem) is used as the primary screen to determine IC50 values for MMP inhibitors. A 100 μL reaction contains 1 mM 5,5'-dithiobis(2-nitrobenzoic acid) (DTNB), 100 μM substrate, 0.1% Brij, enzyme, and inhibitor in the appropriate reaction buffer. Activated full-length enzymes are assayed at 5 nM, Stromelysin Catalytic Domain (SCD) at 10 nM, and Gelatinase A Catalytic Domain (GaCD) at 1 nM. Inhibitors are screened from 100 μM to 1 nM. Full-length enzymes are assayed in 50 mM HEPES, 10 mM CaCl2, pH 7.0; SCD in 50 mM MES, 10 mM CaCl2, pH 6.0; and GaCD in 50 mM MOPS, 10 mM CaCl2, 10 μM ZnCl2, pH 7.0.

[2] = target: T1, stromelysin-1 catalytic domain (MMP03) (Homo sapiens, UniProt P08254); assay: Thiopeptolide assay, stromelysin-1 catalytic domain (SCD, MMP03); format: biochemical
T1 construct: SCD (stromelysin-1 catalytic domain); made in house; host or cells: Escherichia coli
T1 sequence (P08254 100-272 limits assumed): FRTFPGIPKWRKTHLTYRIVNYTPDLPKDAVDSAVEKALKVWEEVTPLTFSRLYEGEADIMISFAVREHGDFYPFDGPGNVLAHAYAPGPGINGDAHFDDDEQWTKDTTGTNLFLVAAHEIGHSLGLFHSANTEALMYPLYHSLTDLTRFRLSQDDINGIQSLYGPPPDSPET
Protocol: as §1

MMP01 = target: T2, MMP01 (Homo sapiens, UniProt P03956); assay: Thiopeptolide assay, MMP01; format: biochemical
T2 construct: purchased Washington University School of Medicine, St. Louis, Mo
T2 sequence (P03956 100-469): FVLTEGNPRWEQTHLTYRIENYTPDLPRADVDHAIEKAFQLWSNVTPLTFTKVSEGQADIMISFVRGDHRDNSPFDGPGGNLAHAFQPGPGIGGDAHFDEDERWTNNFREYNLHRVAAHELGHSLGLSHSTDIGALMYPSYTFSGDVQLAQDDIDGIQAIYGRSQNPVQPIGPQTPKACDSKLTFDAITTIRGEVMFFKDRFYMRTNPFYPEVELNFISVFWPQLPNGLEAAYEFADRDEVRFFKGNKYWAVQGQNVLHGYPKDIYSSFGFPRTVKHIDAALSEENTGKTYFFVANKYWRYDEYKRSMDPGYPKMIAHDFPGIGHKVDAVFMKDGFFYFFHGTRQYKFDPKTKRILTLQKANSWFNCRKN
Protocol: (§2) MMP01, MMP07, MMP09, and MMP13 activity was assayed in a method similar to MMP02 and MMP03 (SCD and GCD). MMP01 and MMP09 can be obtained from Washington University School of Medicine, St. Louis, Mo. MMP07 can be obtained in accordance with the known procedure set forth by Ye QZ, Johnson L. L., and Baragi V., "Gene Syntheses and Expression in E. coli for PUMP, a Human Matrix Metalloproteinase" Biochem. and Biophys. […] MMP 13 can be obtained in accordance with the known procedure set forth by Freije J. M. P., et al., "Molecular Cloning and Expression of Collegenase-3, a Novel Human Matrix Metalloproteinase Produced by Breast Carcinomas" J. Bio.
as §1

MMP07 = target: T3, MMP07 (Homo sapiens, UniProt P09237); assay: Thiopeptolide assay, MMP07; format: biochemical
T3 construct: made in house; host or cells: Escherichia coli
T3 sequence (P09237 95-267): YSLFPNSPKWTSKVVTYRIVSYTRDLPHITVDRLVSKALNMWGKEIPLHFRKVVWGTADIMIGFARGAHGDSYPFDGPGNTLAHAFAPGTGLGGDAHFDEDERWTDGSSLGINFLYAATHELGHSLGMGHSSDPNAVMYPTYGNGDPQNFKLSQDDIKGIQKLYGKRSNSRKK
Protocol: as §2, §1

MMP-13CD = assay: Thiopeptolide assay, MMP-13CD; format: biochemical, human; details: Tables 2, 3, 5, 7
Protocol: IC50 values were determined using a thiopeptolide substrate, Ac-Pro-Leu-Gly-thioester-Leu-Leu-Gly-OEt (Ye Q.-Z., Johnson L. L., Hupe D. J., and Baragi V., "Purification and Characterization of the Human Stromelysin Catalytic Domain Expressed in Escherichia coli," Biochemistry, 1992;31:11231-11235). MMP01, MMP07, MMP09, and MMP13 activity was assayed in a method similar to MMP02 and MMP03 (SCD and GCD). MMP01 and MMP09 can be obtained from Washington University School of Medicine, St. Louis, Mo. MMP07 can be obtained in accordance with the known procedure set forth by Ye QZ, Johnson L. L., and Baragi V., "Gene Syntheses and Expression in E. coli for PUMP, a Human Matrix Metalloproteinase" Biochem. and Biophys. Res. Comm., 1992; 186:143-149. MMP 13 can be obtained in accordance with the known procedure set forth by Freije J. M. P., et al., "Molecular Cloning and Expression of Collegenase-3, a Novel Human Matrix Metalloproteinase Produced by Breast Carcinomas" J. Bio. Chem., 1994;269:16766-6773.
as §1, with “7.0. The change in absorbance at 405 riM is monitored on a ThermoMax microplate reader at room temperature continuously for 20 minutes.” for “7.0.”

[3] = Table 1, GCD, read-out: IC50 MMP02
[4] = Table 1, SCD, read-out: IC50 MMP03
[5] = Tables 2, 3, 5, 7, read-out: IC50 MMP1
[6] = Tables 2, 3, 5, 7, read-out: IC50 MMP-2CD
[7] = Tables 2, 3, 5, 7, read-out: IC50 MMP 3CD
[8] = Tables 2, 3, 5, 7, read-out: IC50 MMP-7

| SMILES | IC50 [1, 3] [µM] | IC50 [2, 4] [µM] | IC50 (MMP01; Table 1, read-out: IC50 MMP01) [µM] | IC50 (MMP07; Table 1, read-out: IC50 MMP07) [µM] | IC50 (MMP01; [5]) [µM] | IC50 [1, 6] [µM] | IC50 [2, 7] [µM] | IC50 (MMP07; [8]) [µM] | IC50 (MMP-13CD) [µM] |
| --- | --- | --- | --- | --- | --- | --- | --- | --- | --- |
| CC(C)C[C@H](CNS(=O)(=O)c1ccc2oc3ccccc3c2c1)CC(=O)O [Example 2, 2(S)-3-[(Dibenzofuran-2-sulfonylamino)-methyl]-5-methyl-hexanoic acid] | 100 | 86 |  |  |  |  |  |  |  |
| O=C(NCCCC[C@H](NS(=O)(=O)c1ccc2oc3ccccc3c2c1)C(=O)O)OCc1ccccc1 [Example 3, 6-Benzyloxycarbonylamino-2-(dibenzofuran-2-sulfonylamino)-hexanoic acid] | 0.35 | 0.18 | 62 | 3.3 |  |  |  |  |  |
| CC(C)(Oc1ccc(Cl)cc1)C(=O)NCCCCC(NS(=O)(=O)c1ccc2oc3ccccc3c2c1)C(=O)O (stereo not drawn) [Example A1, 6-[2-(4-Chloro-phenoxy)-2-methyl-propionylamino]-2-(dibenzofuran-2-sulfonylamino)-hexanoic acid] |  |  |  |  | > 100 | 5.2 | 9.6 | > 100 | 11 |
| O=C(Cc1ccccc1C(F)(F)F)NCCCCC(NS(=O)(=O)c1ccc2oc3ccccc3c2c1)C(=O)O (stereo not drawn) [Example A4, 2-(Dibenzofuran-2-sulfonylamino)-6-[2-(2-trifluoromethyl-phenyl)-acetylamino]-hexanoic acid] |  |  |  |  | > 100 | 2.7 | 4.6 | > 100 | 3.7 |
| O=C(Cc1cccs1)NCCCCC(NS(=O)(=O)c1ccc2oc3ccccc3c2c1)C(=O)O (stereo not drawn) [Example A5, 2-(Dibenzofuran-2-sulfonylamino)-6-(2-thiophen-2-yl-acetylamino)-hexanoic acid] |  |  |  |  | > 100 | 0.9 | 0.5 | 35.6 | 1.1 |
| CCC(Oc1ccccc1)C(=O)NCCCCC(NS(=O)(=O)c1ccc2oc3ccccc3c2c1)C(=O)O (stereo not drawn) [Example A6, 2-(Dibenzofuran-2-sulfonylamino)-6-(2-phenoxy-butrylamino)-hexanoic acid] |  |  |  |  | > 100 | 1.5 | 3.9 | > 100 | 8 |
| O=C(COc1ccccc1)NCCCCC(NS(=O)(=O)c1ccc2oc3ccccc3c2c1)C(=O)O (stereo not drawn) [Example A8, 2-(Dibenzofuran-2-sulfonylamino)-6-(2-phenoxy-acetylamino)-hexanoic acid] |  |  |  |  | > 100 | 1.6 | 2.5 | > 100 | 4.8 |
| CC(C)(C)c1ccc(OCC(=O)NCCCCC(NS(=O)(=O)c2ccc3oc4ccccc4c3c2)C(=O)O)cc1 (stereo not drawn) [Example A10, 6-[2-(4-tert-Butyl-phenoxy)actylamino]-2-(dibenzofuran-2-sulfonylamino)-hexanoic acid] |  |  |  |  | > 100 | 9.4 | 26.5 | > 100 | 63 |
| O=C(CC1=CCCC1)NCCCCC(NS(=O)(=O)c1ccc2oc3ccccc3c2c1)C(=O)O (stereo not drawn) [Example A12] |  |  |  |  | > 100 | 0.6 | 1 | 64.9 | 1.7 |
| COc1ccc(OCC(=O)NCCCCC(NS(=O)(=O)c2ccc3oc4ccccc4c3c2)C(=O)O)cc1 (stereo not drawn) [Example A13, 2-(Dibenzofuran-2-sulfonylamino)-6-[2-(4-methoxy-phenoxy)-acetylamino]-hexanoic acid] |  |  |  |  | > 100 | 1.2 | 2.3 | > 100 | 7.3 |
| O=C(COc1cccc2ccccc12)NCCCCC(NS(=O)(=O)c1ccc2oc3ccccc3c2c1)C(=O)O (stereo not drawn) [Example A14, 2-(Dibenzofuran-2-sulfonylamino)-6-[2-(naphthalen-1-yloxy)acetylamino]-hexanoic acid] |  |  |  |  | > 100 | 7.8 | 5.2 | > 100 | 42.6 |
| Cc1cc(OCCCC(=O)NCCCCC(NS(=O)(=O)c2ccc3oc4ccccc4c3c2)C(=O)O)ccc1Cl (stereo not drawn) [Example A16, 6-[4-(4-Chloro-3-methyl-phenoxy)-butyrylamino]-2-(dibenzofuran-2-sulfonylamino)-hexanoic acid] |  |  |  |  | > 100 | 5.5 | 6.5 | > 100 | 34.4 |
| COc1ccc(CCC(=O)NCCCCC(NS(=O)(=O)c2ccc3oc4ccccc4c3c2)C(=O)O)cc1 (stereo not drawn) [Example A17, 2-(Dibenzofuran-2-sulfonylamino)-6-[3-(4-methoxy-phenyl)-propionylamino]-hexanoic acid] |  |  |  |  | > 100 | 0.7 | 0.9 | 53.3 | 4.4 |
| O=C(Cc1ccc2c(c1)OCO2)NCCCCC(NS(=O)(=O)c1ccc2oc3ccccc3c2c1)C(=O)O (stereo not drawn) [Example A19, 6-(2-Benzo[1,3]dioxol-5-yl-acetylamino)-2-(dibenzofuran-2-sulfonylamino)-hexanoic acid] |  |  |  |  | > 100 | 1 | 1.7 | 92.9 | 3 |
| O=C(CCCc1ccc([N+](=O)[O-])cc1)NCCCCC(NS(=O)(=O)c1ccc2oc3ccccc3c2c1)C(=O)O (stereo not drawn) [Example A21, 2-(Dibenzofuran-2-sulfonylamino)-6-[4-(4-nitro-phenyl)-butyrylamino]-hexanoic acid] |  |  |  |  | > 100 | 3.3 | 7.5 | > 100 | 9.2 |
| O=C(CCc1ccncc1)NCCCCC(NS(=O)(=O)c1ccc2oc3ccccc3c2c1)C(=O)O (stereo not drawn) [Example A22, 2-(Dibenzofuran-2-sulfonylamino)-6-(3-pyridin4-yl-propionylamino)-hexanoic Acid] |  |  |  |  | > 100 | 3 | 9 | > 100 | 10 |
| COc1ccccc1CCC(=O)NCCCCC(NS(=O)(=O)c1ccc2oc3ccccc3c2c1)C(=O)O (stereo not drawn) [Example A25] |  |  |  |  | > 100 | 1.8 | 5.2 | > 100 | 5.2 |
